From ChEMBL document CHEMBL5303711, “ECBD screening data for assay EOS300108” (2023)
Structures can show the parent of a compound that is named as a salt. Active and inactive are the calls of the source. No rule for the calls is given here.

Experiment: Cytotoxicity activity against human HepG2 cells assessed by CellTiter-Glo luminescent cell viability assay.
Type: toxicity, cell-based
Design: assay stage confirmatory assay, source tissue liver
Settings: HepG2 cells, read-out: IC50 relative

| Compound | CC50 |
| --- | --- |
| CCN1CCN(c2ccc(Nc3cc(N(C)C(=O)Nc4c(Cl)c(OC)cc(OC)c4Cl)ncn3)cc2)CC1 [INFIGRATINIB] | 3.3 µM (active) |
| O=C1c2sc3nccc(=O)n3c2C(=O)N1Cc1ccccc1 | 10.8 µM (active) |
| COc1ccc(OC)c(C2CC(c3c(O)[nH]c(=O)n(C4CCCCC4)c3=O)=NN2)c1 (stereo not drawn) | 5.7 µM (active) |
| CNc1nc(N2CCCO[C@@H](CN)C2)nc2ccccc12 | 6.4 µM (active) |
| CC(C)(C)NC(=O)NC(=O)CNc1ccccc1C(=O)Nc1ccc(F)cc1 | 50 µM (inactive) |
| COc1cc(N2CCN(C)CC2)ccc1Nc1ncc2c(n1)N(C1CCC1)C(=O)N(c1c(C)cccc1C)C2 | 3.3 µM (active) |
| CCNC(=O)c1noc(-c2cc(C(C)C)c(O)cc2O)c1-c1ccc(CN2CCOCC2)cc1 [LUMINESPIB] | < 0.1 µM (active) |
| CCN(CC)C(=S)S [DITIOCARB SODIUM] | 6.6 µM (active) |
| CON(C)C(=O)N1N=C(c2cc(F)ccc2F)S[C@@]1(CCCN)c1ccccc1 [FILANESIB] | 11 µM (active) |
| CCc1onc(C)c1C1CCCN1Cc1ccc(OC)c(O)c1 (stereo not drawn) | 6.1 µM (active) |
| CCS(=O)(=O)c1ncc(Br)c(C(=O)Nc2ccc(C)cc2)n1 | 3.1 µM (active) |
| COc1cc(OC)cc(C(=O)NCc2nc3ncc(Br)cc3[nH]2)c1 | 3.7 µM (active) |
| CC(C)c1nn(-c2ccccc2)cc1CNCC(C)(C)N1CCN(C)CC1 | 4.9 µM (active) |
| CC(C)NC(=O)N1CC(Oc2ccc(-c3noc(-c4cccnc4)n3)cc2)C1 | 3.4 µM (active) |
| CCCCN(Cc1ccc(C(=O)NO)cc1)C(=O)Nc1ccccc1 [NEXTURASTAT A] | 6.9 µM (active) |
| CN(C)CCNCc1cccc(OCc2ccc(F)cc2)c1 | 15 µM (inactive) |
| COc1ccc(C(=O)N2CCN(Cc3noc(-c4ccc(F)cc4)n3)CC2)cc1 | 4.5 µM (active) |
| O=C(c1ccncc1)N1CCC2(CC1)CC(Cc1nc(-c3ccncc3)no1)CCO2 (stereo not drawn) | 5.2 µM (active) |
| O=C(Nc1ccccn1)c1cccc(NS(=O)(=O)c2c[nH]c3ncccc23)c1 | 8.6 µM (active) |
| CCN(C)C[C@H]1CCN(Cc2ccc(OCc3ccccc3F)nc2)C1 | 6.7 µM (active) |
| CN1CCN(CCCCOc2ccc(-c3ccccc3)cc2)CC1 | 4 µM (active) |
| O=C(Nc1ccc([N+](=O)[O-])cc1Cl)c1cc(Cl)ccc1O [NICLOSAMIDE] | 0.7 µM (active) |

| Compound | CC50 |
| --- | --- |
| O=C(Nc1ccc(Cl)c(Cl)c1)Nc1ccc(Cl)c(Cl)c1 | 13.1 µM (active) |
| O=C(CN1C(=O)COc2ccc(S(=O)(=O)N3CCCC3)cc21)N1CCN(Cc2ccccc2)CC1 | 50 µM (inactive) |
| CC1(C)[C@H]2CC=C(CCNC(=O)C3CCN(C(=O)c4ccccn4)CC3)[C@@H]1C2 | 4.5 µM (inactive) |
| Oc1ccc(CCNc2ncnc3cccc(F)c23)cc1 | 3.7 µM (active) |
| COc1ncc(-c2ccc3nccc(-c4ccnnc4)c3c2)cc1NS(=O)(=O)c1ccc(F)cc1F [OMIPALISIB] | 0.1 µM (active) |
| CCOc1ccc(CN2CCN(C(=O)c3ccc(-c4ncon4)cc3)CC2)cc1 | 5 µM (active) |
| CC(C)N1CCN(Cc2nc(Cn3ccn4nc(-c5ccccc5)cc4c3=O)no2)CC1 | 8.2 µM (active) |
| CCN1CCC(NC[C@H](C)Oc2ccc(C(C)C)cc2)CC1 | 7.1 µM (active) |
| O=C(NC1CCN(CCCCC2(C(=O)NCC(F)(F)F)c3ccccc3-c3ccccc32)CC1)c1ccccc1-c1ccc(C(F)(F)F)cc1 [LOMITAPIDE] | 1.4 µM (active) |
| NCCCCNS(=O)(=O)c1ccc2c(Cl)cccc2c1 | 13 µM (active) |
| O=C(Nc1cccnn1)N1CCC(=Cc2cccc(Oc3ccc(C(F)(F)F)cn3)c2)CC1 | 7.5 µM (active) |
| CCCCN(CC)CCCNC(=O)c1cc2c(=O)n(C)c3ccccc3c2n1C | 11.8 µM (active) |
| Cc1ccc([C@H](C)N(C)C(=O)Nc2cc(C(C)C)n[nH]2)cc1 | 5 µM (active) |
| CCOC(=O)N1c2ccc(C(F)(F)F)cc2[C@@H](N(Cc2cc(C(F)(F)F)cc(C(F)(F)F)c2)C(=O)OC)C[C@H]1CC [TORCETRAPIB] | 6.4 µM (active) |
| CC(N)Cc1ccc2oc3ccccc3c2c1 (stereo not drawn) | 8 µM (active) |
| Oc1cc(O)c2sc(Nc3ccc(F)cc3)nc2n1 | 5.1 µM (active) |
| O=C(Nc1nccs1)c1cccc(S(=O)(=O)N2CCc3ccccc32)c1 | 8.3 µM (active) |
| COc1ccc(C(=O)N[C@@H]2CN(Cc3ccccc3)C[C@H]2CN(C)C)cc1 | 7.2 µM (active) |
| N#C/C(=C(/N)Sc1ccc(N)cc1)c1ccccc1C(F)(F)F | 8.6 µM (active) |
| CCC(C)C1OC2(CCC1C)CC1CC(C/C=C(/C)C(OC3CC(OC)C(OC4CC(OC)C(O)C(C)O4)C(C)O3)C(C)/C=C\C=C3\COC4C(O)C(C)=CC(C(=O)O1)C34O)O2 (stereo not drawn) | 11.1 µM (active) |
| CN1CCN(C)C(CNc2ncc(F)c(N(C)C)n2)C1 (stereo not drawn) | 50 µM (inactive) |
| C[C@@H](Oc1cc(-n2cnc3ccc(CN4CCN(C)CC4)cc32)sc1C(N)=O)c1ccccc1C(F)(F)F [GSK-461364] | 3.7 µM (active) |

| Compound | CC50 |
| --- | --- |
| O=C(Nc1nc(-c2ccc(F)cc2)n[nH]1)c1ccco1 | 3.4 µM (active) |
| Cc1cc(N2CCN([C@@H](C)C(=O)Nc3ccc(C#N)cc3)CC2)nc(C(C)C)n1 | 11.2 µM (active) |
| CC(C)NC[C@@H](C(=O)N1CCN(c2ncnc3c2[C@H](C)C[C@H]3O)CC1)c1ccc(Cl)cc1 [IPATASERTIB] | 13 µM (active) |
| COc1ccc(F)c(F)c1C(=O)c1cnc(NC2CCN(S(C)(=O)=O)CC2)nc1N [RG-547] | 0.5 µM (active) |
| CCN1CCCCC1CNCc1ccc2cc(O)ccc2c1 (stereo not drawn) | 11.5 µM (active) |
| Cc1noc(C)c1CC(=O)Nc1nc(-c2ccc(S(=O)(=O)N(C)C)cc2)cs1 | 4.3 µM (active) |
| Cc1ccc(C)c(-c2cc(C(F)(F)F)nn2-c2ccc(S(N)(=O)=O)cc2)c1 [DIMETHYL CELECOXIB] | 18.1 µM (inactive) |
| O=C(Nc1ccc2[nH]nc(-c3ccncc3)c2c1)[C@@H]1CCN(CC(=O)N2CCN(c3ccc(-c4ncccn4)cc3)CC2)C1 | 0.1 µM (active) |
| CCN(CC)c1ccc(/C=C/C2=[N+](C)c3ccccc3C2(C)C)cc1 | 1.2 µM (active) |
| N#Cc1nccnc1Sc1nnc(COc2ccc(Cl)cc2)o1 | 2.9 µM (active) |
| COc1ccc(C(=O)N[C@@H]2CN(Cc3ccccc3)C[C@H]2CN(C)C)c(OC)c1 | 11.1 µM (active) |
| CCNC(=O)c1noc(-c2cc(Cl)c(O)cc2O)c1-c1ccc(OC)cc1 | 0.1 µM (active) |
| CCCCOc1ccc(-c2cc3c4nnc(CCC(=O)N5CCN(CC)CC5)n4ccn3n2)cc1 | 4.2 µM (active) |
| Cc1cc(Nc2ccc(NC(=O)c3ccc(Nc4ccnc5ccccc45)cc3)cc2)nc(N)n1 | 0.4 µM (active) |
| CC(C)=CCC[C@]1(C)C=Cc2c(O)c3c(c(CC=C(C)C)c2O1)O[C@]12C(=C[C@@H]4C[C@H]1C(C)(C)O[C@@]2(C/C=C(/C)C(=O)O)C4=O)C3=O | 0.7 µM (active) |
| CN(C(=O)Cn1c(S(C)(=O)=O)nc2ccccc21)c1ccccc1 | 5.1 µM (inactive) |
| C=CCN(C)CCCCCCOc1ccc(C(=O)c2ccc(Br)cc2)c(F)c1 | 2.8 µM (active) |
| COc1cccc(N2CCN(C(=O)C3CCN(c4nc5cccnc5n(C)c4=O)CC3)CC2)c1 | 4.4 µM (active) |
| COc1ccc(NC(=O)Cn2sc3ccccc3c2=O)cc1OC | 12.2 µM (active) |
| CN(C)c1ccc2nc3ccc(=[N+](C)C)cc-3sc2c1 [METHYLENE BLUE ANHYDROUS] | 3 µM (active) |
| NC(=O)c1ccc2[nH]c(-c3ccc(Oc4ccc(Cl)cc4)cc3)nc2c1 | 14.7 µM (inactive) |
| Nc1ccncc1CCC1CCCCC1 | 10.7 µM (active) |

| Compound | CC50 |
| --- | --- |
| Cc1ccc(-c2cc3c(=O)n(Cc4noc(CN5CCN(C)CC5)n4)ccn3n2)cc1 | 9.4 µM (active) |
| COc1ccc(CCN2CCC(Nc3nc4ccccc4n3Cc3ccc(F)cc3)CC2)cc1 [ASTEMIZOLE] | 1.5 µM (active) |
| COc1ccc(-c2cn3nc(N4CCC(C(=O)NCCCN5CCN(C)CC5)CC4)sc3n2)cc1 | 4.1 µM (active) |
| CC1(C)CC(=O)c2cn(-c3ccccc3)c(=O)c(C(=O)Nc3cccnc3)c2C1 | 9.2 µM (inactive) |
| N#Cc1ccc(O[C@@H]2c3ccccc3C[C@H]2N2CCC[C@@H](N)C2)c(Cl)c1 | 4.9 µM (active) |
| COc1ccc(OC[C@@H](O)CN(C)Cc2ccc(C)o2)c(C(C)(C)C)c1 | 21.3 µM (inactive) |
| O=C(NCCN1CCC(n2c(=O)[nH]c3ccccc32)CC1)c1cc2cc(F)ccc2[nH]1 | 6.4 µM (active) |
| CN(C)CCCN(CCCN(C)C)CC(c1ccccc1)c1ccccc1 | 7.2 µM (active) |
| Cc1ccc(S(=O)(=O)N[C@@H](Cc2ccccc2)C(=O)CCl)cc1 [TPCK] | 7.9 µM (active) |
| CC(C)(C)c1ccc(CSc2cnn(C(C)(C)C)c(=O)c2Cl)cc1 [PYRIDABEN] | 0.3 µM (active) |
| O=S(=O)(Nc1cccc2cccnc12)c1ccccc1F | 2.6 µM (active) |
| Cc1cc(C(=O)Nc2ccc(Cl)cc2F)nc2ccnn12 | 2.4 µM (inactive) |
| Cc1cc(NC(=O)N2CC=C(c3c[nH]c4ncccc34)CC2)no1 | 9.2 µM (inactive) |
| CC(C)c1ccc(CN(CCCN(C)C)CCCN(C)C)cc1 | 8.8 µM (active) |
| COc1ccc(C(=O)Nc2nc3cc4c(cc3s2)OCCO4)cn1 | 50 µM (inactive) |
| CC1OC(OC2CC(O)C3(CO)C4C(O)CC5(C)C(C6=CC(=O)OC6)CCC5(O)C4CCC3(O)C2)C(O)C(O)C1O (stereo not drawn) | 0.1 µM (active) |
| O=C1CN2C(=C1c1nc3ccccc3s1)NC(=O)c1sccc12 | 3.7 µM (active) |
| CCC1(CC)CCN(c2ncnc3[nH]ccc23)CC1 | 8.3 µM (active) |
| CO[C@H]1/C=C\C=C(\C)C(=O)NC2=CC(=O)C(NCCN(C)C)=C(C[C@@H](C)C[C@H](OC)[C@H](O)[C@@H](C)/C=C(/C)[C@@H]1OC(N)=O)C2=O | < 0.1 µM (active) |
| O=C1Nc2ccccc2/C1=C1\Nc2ccccc2\C1=N/O | 14.6 µM (inactive) |
| COc1cc2nc(N3CCN(C(=O)C4COc5ccccc5O4)CC3)nc(N)c2cc1OC (stereo not drawn) [DOXAZOSIN MESYLATE] | 13.5 µM (inactive) |
| CN(C)CCCOc1ccc(-c2ccc3ncc4c(c3c2)n(C2CCOCC2)c(=O)n4C)cn1 | 7.4 µM (active) |
